Patent US8859574B2 (IRM LLC, priority 2008, dated 2014)

These compounds were tested against T1, IGF-1R Ba/F3 (Homo sapiens, UniProt P08069) (assay: Ba/F3 Cell Viability Inhibition Assay (IGF-1R Ba/F3)). Conditions: Tel-TK transformed Ba/F3 cells, 48 hours, Britelite luminescence.
T1 construct: fused on or other part: TEL- (or BCR-) IGF-1R in Ba/F3: the kinase part holds the site
Assay type: cell-based, murine
Excerpt: The IC50 of a drug may be determined constructing a dose-response curve and examining the effect of different concentrations of antagonist on reversing agonist activity. IC50 values may be calculated for a given antagonist by determining the concentration needed to inhibit half of the maximum biological response of the agonist. To calculate IC50 values, a series of dose-response data (e.g., drug concentrations x1, x2, . . . , xn and growth inhibition y1, y2, . . . , yn, the values of y are in the range of 0-1) is generated. IC50 values may be determined by a computer-aided system using the formula: y=D+((A−D)/(1+10^(x-log(IC50)B) • where A is the ratio of growth inhibition between lowest drug concentration and control; B is the slope of sigmoidal curvel; and D is the ratio of growth inhibition between highest drug concentration and control.
Ba/F3 is a murine IL-3-dependent pro-B lymphoma cell line. Parental Ba/F3 cells are used to generate a panel of sublines whose proliferation and survival is rendered IL-3-independent by stable transduction with individual tyrosine kinases activated by fusion with the amino-terminal portion of TEL (amino acid 1-375) or BCR. In order to generate Ba/F3 cell lines transformed by Tel-Tyrosine Kinase (TK) fusions, parental Ba/F3 cells are infected with a retrovirus harboring each TEL-fusion kinase and subjected to puromycin selection and IL-3 withdrawal to obtain IL-3-independent, transformed Ba/F3 cells.
Each transformed Ba/F3 cells are cultured in RPMI-1640 media (Gibco Cat #11875093, Carlsbad, Calif.) supplemented with 10% FBS (Hyclone Cat #SV30014.03, Logan, Utah), 4.5 g/L glucose (Sigma #G5400, St. Louis, Mo.), 1.5 g/L sodium bicarbonate (Biowhittaker #17-613E, Walkersville, Md.) and Pen/Strep (Gibco #10378-016, Carlsbad, Calif.). Cells are splitted twice weekly.
The potency of test compounds against various Tel-TK transformed Ba/F3 lines is determined as follows. Exponentially growing BaF3 Tel-TK cells are diluted in fresh medium to 75,000 cells/mL and seeded into 384-well plates (3750 cells/well) at 50 μL/well using a μFill liquid dispenser (BioTek, Winooski, Vt., USA). Duplicate plates are run for each cell line. Test and control compounds are serially diluted with DMSO and arrayed in a polypropylene 384-well plate. […] of compound is transferred into the assay plates using a pin-transfer device, and the plates are incubated at 37° C. (5% CO2) for 48 hours. 25 μL Britelite (Perkin Elmer) is added and luminescence is quantified using Analyst GT (Molecular Devices). Custom curve-fitting software is used to produce a logistic fit of percent cell viability as a function of the logarithm of inhibitor concentration. The IC50 is interpolated as the concentration of compound needed to reduce cell viability to 50% of a DMSO control. Parental Ba/F3 cells that are maintained and cultured in presence of IL-3 (1 ng/ml in final) are diluted in fresh medium containing IL-3 (1 ng/ml in final) to 75,000 cells/mL following the same procedure as described above.

T1 sequence (P08069 999-1274 limits assumed): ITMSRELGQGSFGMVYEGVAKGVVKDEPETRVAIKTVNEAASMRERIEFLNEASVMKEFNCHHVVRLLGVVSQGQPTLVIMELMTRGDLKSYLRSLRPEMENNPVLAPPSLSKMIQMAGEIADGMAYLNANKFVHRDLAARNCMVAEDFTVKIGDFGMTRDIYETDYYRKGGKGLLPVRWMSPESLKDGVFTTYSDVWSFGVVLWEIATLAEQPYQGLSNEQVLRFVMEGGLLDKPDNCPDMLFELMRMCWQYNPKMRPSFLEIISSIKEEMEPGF

SMILES | IC50
CCN1CCC(c2cc(C)c(Nc3ncc(C(F)(F)F)c(Nc4cc(C)[nH]n4)n3)cc2C)CC1 [Compound 221, N2-(4-(1-ethylpiperidin-4-yl)-2,5-dimethylphenyl)-N4-(5-methyl-1H-pyrazol-3-yl)-5-(trifluoromethyl)pyrimidine-2,4-diamine] | 34 nM
Cc1cc(Nc2nc(Nc3cc(C)c(C4CCN(C(=O)[C@@H]5COCCN5)CC4)cc3F)ncc2Cl)n[nH]1 [Compound 143, (S)-(4-(4-(5-chloro-4-(5-methyl-1H-pyrazol-3-ylamino)pyrimidin-2-ylamino)-5-fluoro-2-methylphenyl)piperidin-1-yl)(morpholin-3-yl)methanone] | 71 nM
Cc1cc(Nc2nc(Nc3cc(C)c(C4CCN(C5CCNCC5)CC4)cc3F)ncc2Cl)n[nH]1 [Compound 276, N2-(4-(1,4′-bipiperidin-4-yl)-2-fluoro-5-methylphenyl)-5-chloro-N4-(5-methyl-1H-pyrazol-3-yl)pyrimidine-2,4-diamine] | 437 nM
Cc1cc(Nc2nc(Nc3cc(C)c(C4CCN(CCc5nc(C(C)C)no5)CC4)cc3C)ncc2Cl)n[nH]1 [Compound 269, 5-Chloro-N2-(4-(1-(2-(3-isopropyl-1,2,4-oxadiazol-5-yl)ethyl)piperidin-4-yl)-2,5-dimethylphenyl)-N4-(5-methyl-1H-pyrazol-3-yl)pyrimidine-2,4-diamine] | 39 nM
Cc1cc(Nc2nc(Nc3cc(Cl)c(C4CCN(CCS(=O)(=O)N5CCC5)CC4)cc3C)ncc2Cl)n[nH]1 [Compound 60, N2-(4-(1-(2-(azetidin-1-ylsulfonyl)ethyl)piperidin-4-yl)-5-chloro-2-methylphenyl)-5-chloro-N4-(5-methyl-1H-pyrazol-3-yl)pyrimidine-2,4-diamine] | 11 nM
Cc1cc(Nc2nc(Nc3cc(C)c(C4CCN(C(C)C(N)=O)CC4)cc3F)ncc2Cl)n[nH]1 (stereo not drawn) [Compound 49, 2-(4-(4-(5-chloro-4-(5-methyl-1H-pyrazol-3-ylamino)pyrimidin-2-ylamino)-5-fluoro-2-methylphenyl)piperidin-1-yl)propanamide] | 15 nM
Cc1cc(Nc2nc(Nc3cc(C)c(C4CCN(Cc5noc(C)n5)CC4)cc3F)ncc2Cl)n[nH]1 [Compound 292, 5-chloro-N2-(2-fluoro-5-methyl-4-(1-((5-methyl-1,2,4-oxadiazol-3-yl)methyl)piperidin-4-yl)phenyl)-N4-(5-methyl-1H-pyrazol-3-yl)pyrimidine-2,4-diamine] | 23 nM
Cc1cc(Nc2nc(Nc3cc(C)c(C4CCN(C(=O)[C@@H]5CCCN5C)CC4)cc3C)ncc2Cl)n[nH]1 [Compound 121, (S)-(4-(4-(5-chloro-4-(5-methyl-1H-pyrazol-3-ylamino)pyrimidin-2-ylamino)-2,5-dimethylphenyl)piperidin-1-yl)(1-methylpyrrolidin-2-yl)methanone] | 17 nM
Cc1cc(Nc2nc(Nc3cc(C)c(C4CCCCN4CC(N)=O)cc3C)ncc2Cl)n[nH]1 (stereo not drawn) [Compound 181, 2-(2-(4-(5-Chloro-4-(5-methyl-1H-pyrazol-3-ylamino)pyrimidin-2-ylamino)-2,5-dimethylphenyl)piperidin-1-yl)acetamide] | 24 nM
Cc1cc(Nc2nc(Nc3cc(Cl)c(C4CCN(C)CC4)cc3C)ncc2Cl)n[nH]1 [Compound 7, 5-chloro-N2-(5-chloro-2-methyl-4-(1-methylpiperidin-4-yl)phenyl)-N4-(5-methyl-1H-pyrazol-3-yl)pyrimidine-2,4-diamine] | 15 nM
Cc1cc(Nc2nc(Nc3cc(C)c(C4CCNC(=O)C4)cc3C)ncc2Cl)n[nH]1 (stereo not drawn) [Compound 151, 4-(4-(5-chloro-4-(5-methyl-1H-pyrazol-3-ylamino)pyrimidin-2-ylamino)-2,5-dimethylphenyl)piperidin-2-one] | 9 nM
Cc1cc(Nc2ncc(Cl)c(NC3CCCCNC3=O)n2)c(F)cc1C1CCN(C)CC1 (stereo not drawn) [Compound 9, 3-(5-chloro-2-(2-fluoro-5-methyl-4-(1-methylpiperidin-4-yl)phenylamino)pyrimidin-4-ylamino)azepan-2-one] | 87 nM
Cc1cc(Nc2nc(Nc3cc(C)c(C4CCN(C(=O)CN(C)C)CC4)cc3C)ncc2Cl)n[nH]1 [Compound 75, 1-(4-(4-(5-chloro-4-(5-methyl-1H-pyrazol-3-ylamino)pyrimidin-2-ylamino)-2,5-dimethylphenyl)piperidin-1-yl)-2-(dimethylamino)ethanone] | 11 nM
Cc1cc(Nc2nc(Nc3cc(C)c(C4CCN(CC#N)CC4)cc3F)ncc2Cl)n[nH]1 [Compound 199, 2-(4-(4-(5-chloro-4-(5-methyl-1H-pyrazol-3-ylamino)pyrimidin-2-ylamino)-5-fluoro-2-methylphenyl)piperidin-1-yl)acetonitrile] | 77 nM
Cc1noc(CN2CCC(c3cc(C)c(Nc4ncc(Cl)c(Nc5cc(C)[nH]n5)n4)cc3C)CC2)n1 [Compound 302, 5-chloro-N2-(2,5-dimethyl-4-(1-((3-methyl-1,2,4-oxadiazol-5-yl)methyl)piperidin-4-yl)phenyl)-N4-(5-methyl-1H-pyrazol-3-yl)pyrimidine-2,4-diamine] | 6 nM
Cc1cc(Nc2nc(Nc3cc(C4CCN(C(C)C(N)=O)CC4)c(F)cc3C)ncc2Cl)n[nH]1 (stereo not drawn) [Compound 48, 2-(4-(5-(5-chloro-4-(5-methyl-1H-pyrazol-3-ylamino)pyrimidin-2-ylamino)-2-fluoro-4-methylphenyl)piperidin-1-yl)propanamide] | 3680 nM
Cc1cc(Nc2nc(Nc3cc(C)c(C4CCN(C(=O)CN5CCCCC5)CC4)cc3C)ncc2Cl)n[nH]1 [Compound 101, 1-(4-(4-(5-chloro-4-(5-methyl-1H-pyrazol-3-ylamino)pyrimidin-2-ylamino)-2,5-dimethylphenyl)piperidin-1-yl)-2-(piperidin-1-yl)ethanone] | 7 nM
Cc1cc(Nc2nc(Nc3cc(C)c(C4CCN(S(C)(=O)=O)CC4)cc3C)ncc2Cl)n[nH]1 [Compound 63, 5-chloro-N2-(2,5-dimethyl-4-(1-(methylsulfonyl)piperidin-4-yl)phenyl)-N4-(5-methyl-1H-pyrazol-3-yl)pyrimidine-2,4-diamine] | 2 nM
Cc1cc(Nc2nc(Nc3cc(C)c(C4CCN(C(=O)CCN5CCCC5)CC4)cc3C)ncc2Cl)n[nH]1 [Compound 226, 1-(4-(4-(5-chloro-4-(5-methyl-1H-pyrazol-3-ylamino)pyrimidin-2-ylamino)-2,5-dimethylphenyl)piperidin-1-yl)-3-(pyrrolidin-1-yl)propan-1-one] | 61 nM
Cc1cc(Nc2nc(Nc3cc(C)c(C4CCCCN4C(=O)CN(C)C)cc3C)ncc2Cl)n[nH]1 (stereo not drawn) [Compound 83, 1-(2-(4-(5-chloro-4-(5-methyl-1H-pyrazol-3-ylamino)pyrimidin-2-ylamino)-2,5-dimethylphenyl)piperidin-1-yl)-2-(dimethylamino)ethanone] | 13 nM
Cc1cc(Nc2nc(Nc3cc(C)c(C4CCN(S(=O)(=O)CCCN5CCOCC5)CC4)cc3C)ncc2Cl)n[nH]1 [Compound 194, 5-Chloro-N^2-(2,5-dimethyl-4-(1-(3-morpholinopropylsulfonyl)piperidin-4-yl)phenyl)-N^4-(5-methyl-1H-pyrazol-3-yl)pyrimidine-2,4-diamine] | 13 nM
Cc1cc(Nc2nc(Nc3cc(C)c(C4CCN(C(=O)CCN(C)C)CC4)cc3F)ncc2Cl)n[nH]1 [Compound 78, 1-(4-(4-(5-chloro-4-(5-methyl-1H-pyrazol-3-ylamino)pyrimidin-2-ylamino)-5-fluoro-2-methylphenyl)piperidin-1-yl)-3-(dimethylamino)propan-1-one] | 138 nM
Cc1cc(Nc2nc(Nc3cc(C)c(C4CCN(Cc5cnccn5)CC4)cc3F)ncc2Cl)n[nH]1 [Compound 315, 5-chloro-N2-(2-fluoro-5-methyl-4-(1-(pyrazin-2-ylmethyl)piperidin-4-yl)phenyl)-N4-(5-methyl-1H-pyrazol-3-yl)pyrimidine-2,4-diamine] | 36 nM
Cc1cc(Nc2nc(Nc3cc(C)c(C4CCN(C5CCC(O)CC5)CC4)cc3F)ncc2Cl)n[nH]1 (stereo not drawn) [Compound 298, 4-(4-(4-(5-chloro-4-(5-methyl-1H-pyrazol-3-ylamino)pyrimidin-2-ylamino)-5-fluoro-2-methylphenyl)piperidin-1-yl)cyclohexanol] | 26 nM
